Measured values published in patent US7291641B2, “Derivatives of heterocycles with 5 members, their preparation and their use as medicaments” (Societe de Conseils de Recherches et d'Applications …, priority 1999, dated 2007).
Structures can show the parent of a compound that is named as a salt.

SMILES	melting point
CCCCCCC(N)c1nc(-c2ccccc2)c[nH]1 (racemic) (as salt: hydrochloride) [Example 142, (R,S)-1-(4-phenyl-1H-imidazol-2-yl)heptylamine]	131 to 134 °C
CCCCC(N)c1nc(-c2ccc(-c3ccccc3)cc2)c[nH]1 (racemic) (as salt: hydrochloride) [Example 175, (R,S)-1-(4-[1,1′-biphenyl]-4-yl-1H-imidazol-2-yl)-1-pentanamine]	197 to 200 °C
CCCCC(N)c1nc(-c2ccccc2)c[nH]1 (racemic) (as salt: hydrochloride) [Example 181, (R,S)-1-(4-phenyl-1H-imidazol-2-yl)pentylamine]	178 to 180 °C
CCCCCCC(N)c1nc(-c2ccc(C)cc2)c[nH]1 (racemic) (as salt: hydrochloride) [Example 184, (R,S)-1-[4-(4-methylphenyl)-1H-imidazol-2-yl]-1-heptanamine]	157 to 160 °C
CCCCCCC(N)c1nc(-c2ccccc2OC)c[nH]1 (racemic) (as salt: hydrochloride) [Example 185, (R,S)-1-[4-(2-methoxyphenyl)-1H-imidazol-2-yl]heptylamine]	238 to 240 °C
CCCCCCC(N)c1nc(-c2ccc(-c3ccccc3)cc2)c[nH]1 (racemic) (as salt: hydrochloride) [Example 188, (R,S)-1-(4-[1,1′-biphenyl]-4-yl-1H-imidazol-2-yl)-heptanamine]	182 to 184 °C
CCCCCCC(N)c1nc(-c2ccc(OC)cc2)c[nH]1 (racemic) (as salt: hydrochloride) [Example 190, (R,S)-1-[4-(4-methoxyphenyl)-1H-imidazol-2-yl]heptylamine]	231 to 232 °C
CCCCCCC(N)c1nc(-c2cccc(Br)c2)c[nH]1 (racemic) (as salt: hydrochloride) [Example 191, (R,S)-1-[4-(3-bromophenyl)-1H-imidazol-2-yl]-1-heptanamine]	230 to 231 °C
CCCCCCC(NCc1ccccc1)c1nc(-c2ccc(C)cc2)c[nH]1 (racemic) (as salt: hydrochloride) [Example 200, (R,S)-N-benzyl-1-[4-(4-methylphenyl)-1H-imidazol-2-yl]-1-heptanamine]	185 to 188 °C
CCCCCCC(N)c1nc(-c2ccc(C#N)cc2)c[nH]1 (racemic) (as salt: hydrochloride) [Example 205, (R,S)-4-[2-(1-aminoheptyl)-1H-imidazol-4-yl]benzonitrile]	218 to 220 °C
CCCCCCC(N)c1nc(-c2cc(C(C)(C)C)c(O)c(C(C)(C)C)c2)c[nH]1 (racemic) (as salt: hydrochloride) [Example 210, (R,S)-4-[2-(1-aminoheptyl)-1H-imidazol-4-yl]-2,6-di(tert-butyl)-phenol]	204 to 206 °C
CCCCCCC(N)c1nc(-c2ccc(N(CC)CC)cc2)c[nH]1 (racemic) (as salt: hydrochloride) [Example 218, (R,S)-4-[2-(1-aminoheptyl)-1H-imidazol-4-yl]-N,N-diethylaniline]	192 °C
CCCCCCC(N)c1nc(-c2ccc(F)cc2)c[nH]1 (racemic) (as salt: hydrochloride) [Example 220, (R,S)-1-[4-(4-fluorophenyl)-1H-imidazol-2-yl]-1-heptanamine]	148 to 150 °C
CCCCCCC(N)c1nc(-c2ccccc2Cl)c[nH]1 (racemic) (as salt: hydrochloride) [Example 221, (R,S)-1-[4-(2-chlorophenyl)-1H-imidazol-2-yl]-1-heptanamine]	138 to 140 °C
CCCCCCC(NCc1ccccc1)c1nc(-c2ccc(N(CC)CC)cc2)c[nH]1 (racemic) (as salt: hydrochloride) [Example 230, (R,S)-N-benzyl-N-(1-{4-[4-(diethylamino)phenyl]-1H-imidazol-2-yl}heptyl)amine]	170 °C
CCCCCCC(N)c1nc(-c2ccc(Cl)c(Cl)c2)c[nH]1 (racemic) (as salt: hydrochloride) [Example 231, (R,S)-1-[4-(3,4-dichlorophenyl)-1H-imidazol-2-yl]-1-heptanamine]	148 to 150 °C
CC(C)CCCC(N)c1nc(-c2cccc(Br)c2)c[nH]1 (racemic) (as salt: hydrochloride) [Example 233, (R,S)-1-[4-(3-bromophenyl)-1H-imidazol-2-yl]-5-methyl-1-hexanamine]	200 to 202 °C
CCCCCCC(NC1CCCCC1)c1nc(-c2ccc(Cl)c(Cl)c2)c[nH]1 (racemic) (as salt: hydrochloride) [Example 250, (R,S)-N-{1-[4-(3,4-dichlorophenyl)-1H-imidazol-2-yl]heptyl}-cyclohexanamine]	194 °C
CCCCCCC(NC1CCCCC1)c1nc(-c2ccc(-c3ccccc3)cc2)c[nH]1 (racemic) (as salt: hydrochloride) [Example 252, (R,S)-N-[1-(4-[1,1′-biphenyl]-4-yl-1H-imidazol-2-yl)heptyl]-cyclohexanamine]	168 to 170 °C
NC(Cc1c[nH]c2ccc(F)cc12)c1nc(-c2ccc(F)cc2)c[nH]1 (racemic) (as salt: hydrochloride) [Example 253, (R,S)-2-(5-fluoro-1H-indol-3-yl)-1-[4-(4-fluorophenyl)-1H-imidazol-2-yl]ethylamine]	220 to 222 °C

SMILES	melting point
Fc1ccc(-c2c[nH]c(C(Cc3c[nH]c4ccc(F)cc34)NC3CCC3)n2)cc1 (racemic) (as salt: hydrochloride) [Example 256, (R,S)-N-{2-(5-fluoro-1H-indol-3-yl)-1-[4-(4-fluorophenyl)-1H-imidazol-2-yl]ethyl}cyclobutanamine]	180 to 190 °C
CC(C)CCC(NC1CCCCC1)c1nc(-c2ccc(F)cc2)c[nH]1 (racemic) (as salt: hydrochloride) [Example 257, (R,S)-N-{1-[4-(4-fluorophenyl)-1H-imidazol-2-yl]4-methylpentyl}-cyclohexanamine]	230 to 232 °C
CCCCCCC(NCC1CCCCC1)c1nc(-c2ccccc2)c[nH]1 (racemic) (as salt: hydrochloride) [Example 263, (R,S) N-(cyclohexylmethyl)-1-(4-phenyl-1H-imidazol-2-yl)-1-heptanamine]	142 to 144 °C
CC(C)CCCC(NC1CCCCC1)c1nc(-c2cccc(Br)c2)c[nH]1 (racemic) (as salt: hydrochloride) [Example 272, (R,S)-N-{1-[4-(3-bromophenyl)-1H-imidazol-2-yl]-5-methylhexyl}-cyclohexanamine]	216.7 °C
CCCCC(NC(=O)OC(C)(C)C)c1nc(-c2ccc(-c3ccccc3)cc2)c[nH]1 (racemic) [Example 59, (R,S)-4-(2-{1-[(tert-butoxycarbonyl)amino]pentyl}-1H-imidazol-4-yl)-1,1′-biphenyl]	172 to 176 °C
CCCCC(NCc1ccccc1)c1nc(-c2ccc(-c3ccccc3)cc2)c[nH]1 (racemic) [Example 60, (R,S)—N-benzyl-1-(4-[1,1′-biphenyl]4-yl-1H-imidazol-2-yl)-1-pentanamine]	201 to 203 °C
CCCCCCNC(CCCCCC)c1nc(-c2ccccc2)c[nH]1 (racemic) [Example 64, (R,S)-N-hexyl-1-(4-phenyl-1H-imidazol-2-yl)-1-heptanamine]	140 to 142 °C
CCCCCCC(NCCCCC)c1nc(-c2ccccc2)c[nH]1 (racemic) [Example 75, (R,S)-N-pentyl-1-(4-phenyl-1H-imidazol-2-yl)-1-heptanamine]	118 to 120 °C
CCCCCCC(NC1CCCCC1)c1nc(-c2ccccc2)c[nH]1 (racemic) [Example 76, (R,S)-N-[1-(4-phenyl-1H-imidazol-2-yl)heptyl]cyclohexanamine]	68 to 70 °C
CCCCCCC(NCc1ccccc1)c1nc(-c2ccc(Cl)c(Cl)c2)c[nH]1 (racemic) [Example 77, (R,S)-N-benzyl-1-[4-(3,4-dichlorophenyl)-1H-imidazol-2-yl]-1-heptanamine]	192 to 194 °C
Fc1ccc2c(CC(NCc3ccccc3)c3nc(-c4ccccc4)c[nH]3)c[nH]c2c1 (racemic) [Example 105, (R,S)-N-benzyl-2-(6-fluoro-1H-indol-3-yl)-1-(4-phenyl-1H-imidazol-2-yl)ethanamine]	98 to 100 °C
c1ccc(CNC(c2ccccc2)c2nc(-c3ccccc3)c[nH]2)cc1 (racemic) [Example 133, (R,S)-N-benzyl(phenyl)(4-phenyl-1H-imidazol-2-yl)methanamine]	144 to 146 °C
Fc1ccc(-c2c[nH]c(C(CCCC(F)(F)F)NC3CCCCC3)n2)cc1 (racemic) [Example 136, (R,S)-N-{5,5,5-trifluoro-1-[4-(4-fluorophenyl)-1H-imidazol-2-yl]pentyl}cyclohexanamine]	220 °C
CCCCCCC(NCc1ccccc1)c1nc(-c2ccccc2)c[nH]1 (racemic) [Example 145, (R,S)-N-benzyl-1-(4-phenyl-1H-imidazol-2-yl)-1-heptanamine]	160 to 162 °C
CCCCC(NC(=O)OC(C)(C)C)c1nc(-c2ccccc2)c[nH]1 (racemic) [Example 174, tert-butyl (R,S)-1-(4-phenyl-1H-imidazol-2-yl)pentylcarbamate]	126 °C
CCCCCCC(NC(=O)OC(C)(C)C)c1nc(-c2ccccc2OC)c[nH]1 (racemic) [Example 183, tert-butyl (R,S)-1-[4-(2-methoxyphenyl)-1H-imidazol-2-yl]heptylcarbamate]	64 to 65 °C
CCCCC(NCc1ccccc1)c1nc(-c2ccccc2)c[nH]1 (racemic) [Example 186, (R,S)-N-benzyl-1-(4-phenyl-1H-imidazol-2-yl)-1-pentanamine]	200 to 202 °C
CCCCCCC(NC(=O)OC(C)(C)C)c1nc(-c2ccc(-c3ccccc3)cc2)c[nH]1 (racemic) [Example 192, (R,S)-4-(2-{1-[(tert-butoxycarbonyl)amino]heptyl}-1H-imidazol-4-yl)-1,1′-biphenyl]	142 to 144 °C
CCCCCCC(NCc1ccccc1)c1nc(-c2ccc(-c3ccccc3)cc2)c[nH]1 (racemic) [Example 195, (R,S)-N-benzyl-1-(4-[1,1′-biphenyl]-4-yl-1H-imidazol-2-yl)-1-heptanamine]	100 to 102 °C
